# Assay results from patent US20250179047A1, “5-[7-(3,4-DIHYDRO-1H-ISOQUINOLINE-2-CARBONYL)-1,2,3,4 TETRAHYDROISOQUINOLIN-6-YL]-1H-PYRROLE-3-CARBOXAMIDE DERIVATIVES, PHARMACEUTICAL COMPOSITIONS CONTAINING THEM AND THEIR USES AS PRO-APOPTOTIC AGENTS” (LES LABORATOIRES SERVIER, priority 2022, published 2025).
# Experiments:
# BCL2 WT = BCL2 WT (Homo sapiens (Human), UniProt P10415); assay: TR-FRET competitive binding assay, BCL2 WT; conditions: Ki determined from IC50, read-out: TR_FRET EKI_Bcl2 WT
# In short: (§1)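 Terbium-labelled N-terminal Halo-fusion BCL2 or BCLXL (E. coli), 0.5 nM, competed against fluorescein-labelled PUMA peptide (2 or 20 nM) for 2 h at 23° C in 50 mM Hepes pH 7.5, 150 mM NaCl, 5% DMSO. TR-FRET 520/495 nm ratio gave IC50 by four-parameter fit; Ki derived from IC50.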
# BCL2 G101V [1] = molecular target: BCL2 G101V (Homo sapiens, UniProt P10415, G101V); assay: TR-FRET competitive binding assay, BCL2 G101V; conditions: BCL2 G101V; Ki determined from IC50; read-out: TR_FRET EKI_Bcl2 G101V
# In short: as §1
# BCL2 G101V [2] = assay: TR-FRET competitive binding assay, BCL2 G101V; design: species or system human; conditions: ratio Ki BCL2 G101V / Ki BCL2 WT
# In short: as §1
# BCL2 D103Y = BCL2 D103Y (Homo sapiens, UniProt P10415, D103Y); assay: TR-FRET competitive binding assay, BCL2 D103Y; conditions: Ki determined from IC50, read-out: TR_FRET EKI_Bcl2 D103Y
# In short: as §1
# BCLXL WT = BCLXL WT (Homo sapiens (Human), UniProt Q07817); assay: TR-FRET competitive binding assay, BCLXL WT; conditions: for Ki: BCLXL WT, Ki determined from IC50, read-out: TR_FRET EKI BclxL; for TR_FRET EKI BCLxL/WT selectivty ratio: ratio Ki BCLxL / Ki BCL2 WT
# In short: as §1
# KMS-12-PE Bcl-2 WT = assay: In vitro cytotoxicity CellTiter-Glo 48 h, KMS-12-PE Bcl-2 WT; type: cell-based; conditions: Homo sapiens, KMS-12-PE, C50 = concentration needed to reach 50% of the cellular viability
# In short: (§2)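 Bcl-2 WT- and G101V-expressing KMS-12-PE cells; 48 h treatment at 37 °C, 5% CO2; CellTiter-Glo ATP luminescence; C50 from 11-point curves.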
# KMS-12-PE Bcl-2 G101V = assay: In vitro cytotoxicity CellTiter-Glo 48 h, KMS-12-PE Bcl-2 G101V; type: cell-based; conditions: for Ratio (G101V/WT): C50 KMS-12-PE Bcl-2 G101V over C50 KMS-12-PE Bcl-2 WT; for IC50: Homo sapiens, KMS-12-PE, 48 h, CellTiter-Glo, C50 = concentration needed to reach 50% of the cellular viability
# In short: as §2
# BCLXL WT, sequence (Q07817 other isoform, or with tags, fused parts or gaps): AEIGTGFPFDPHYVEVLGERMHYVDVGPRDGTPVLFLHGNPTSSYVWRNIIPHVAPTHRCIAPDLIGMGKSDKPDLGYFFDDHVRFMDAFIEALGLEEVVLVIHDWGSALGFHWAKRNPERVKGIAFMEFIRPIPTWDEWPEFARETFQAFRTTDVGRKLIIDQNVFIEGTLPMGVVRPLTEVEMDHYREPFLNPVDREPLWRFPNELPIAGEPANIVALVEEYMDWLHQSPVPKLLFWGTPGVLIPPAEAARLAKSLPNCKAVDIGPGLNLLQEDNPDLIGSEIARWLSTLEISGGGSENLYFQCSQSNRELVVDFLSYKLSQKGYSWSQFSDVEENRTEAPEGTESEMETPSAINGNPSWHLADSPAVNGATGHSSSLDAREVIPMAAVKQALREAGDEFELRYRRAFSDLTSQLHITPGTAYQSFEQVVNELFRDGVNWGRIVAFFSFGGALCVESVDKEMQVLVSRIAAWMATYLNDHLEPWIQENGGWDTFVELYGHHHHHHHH
SMILES,Ki (BCL2 WT),Ki (BCL2 G101V [1]),TR_FRET EKI G101V/WT selectivty ratio (BCL2 G101V [2]),Ki (BCL2 D103Y),Ki (BCLXL WT),TR_FRET EKI BCLxL/WT selectivty ratio (BCLXL WT),IC50 (KMS-12-PE Bcl-2 WT),Ratio (G101V/WT) (KMS-12-PE Bcl-2 G101V),IC50 (KMS-12-PE Bcl-2 G101V)
"Cc1c(N(C(=O)c2cc(-c3cc4c(cc3C(=O)N3Cc5ccccc5C[C@H]3C)CN(Cc3cc5ccccc5cn3)CC4)n(C)c2C)c2ccc(O)cc2)cc(C#N)n1C [Example 58, N-(5-cyano-1,2-dimethylpyrrol-3-yl)-N-(4-hydroxyphenyl)-5-[2-(isoquinolin-3-ylmethyl)-7-{[(3R)-3-methyl-3,4-dihydro-1H-isoquinolin-2-yl]carbonyl}-3,4-dihydro-1H-isoquinolin-6-yl]-1,2-dimethylpyrrole-3-carboxamide]",0.21 nM,1.7 nM,8.1,0.51 nM,2.3 nM,11.0,0.005 µM,7.95,0.0396 µM
"Cc1c(N(C(=O)c2cc(-c3cc4c(cc3C(=O)N3Cc5ccccc5C[C@H]3C)CN(C(=O)Cc3ccc(OCCC5CCOCC5)nc3)CC4)n(C)c2C)c2ccc(O)cc2)cc(C#N)n1C [Example 59, N-(5-cyano-1,2-dimethyl-1H-pyrrol-3-yl)-N-(4-hydroxyphenyl)-1,2-dimethyl-5-{7-[(3R)-3-methyl-1,2,3,4-tetrahydroisoquinoline-2-carbonyl]-2-(2-{6-[2-(oxan-4-yl)ethoxy]pyridin-3-yl}acetyl)-1,2,3,4-tetrahydroisoquinolin-6-yl}-1H-pyrrole-3-carboxamide]",0.16 nM,0.7 nM,4.6,0.4 nM,3 nM,19.1,0.0064 µM,5.15,0.0331 µM
"Cc1c(C(=O)N(c2ccc(O)cc2)c2cc(C#N)n(C(C)C)c2C)cc(-c2cc3c(cc2C(=O)N2Cc4ccccc4C[C@H]2C)CN(C(=O)Cc2ccc(OCCN4CCOCC4)cc2)CC3)n1C [Example 64, N-(5-cyano-1-isopropyl-2-methyl-pyrrol-3-yl)-N-(4-hydroxyphenyl)-1,2-dimethyl-5-[7-[(3R)-3-methyl-3,4-dihydro-1H-isoquinoline-2-carbonyl]-2-[2-[4-(2-morpholinoethoxy)phenyl]acetyl]-3,4-dihydro-1H-isoquinolin-6-yl]pyrrole-3-carboxamide]",0.11 nM,0.5 nM,4.5,0.79 nM,2.8 nM,25.5,0.0156 µM,4.78,0.0745 µM
"Cc1c(N(C(=O)c2cc(-c3cc4c(cc3C(=O)N3Cc5ccccc5C[C@H]3C)CN(C(=O)Cc3cc(F)c(OCCN5CCOCC5)cc3F)CC4)n(C)c2C)c2ccc(O)cc2)cc(C#N)n1C [Example 69, N-(5-cyano-1,2-dimethylpyrrol-3-yl)-5-[2-(2-{2,5-difluoro-4-[2-(morpholin-4-yl)ethoxy]phenyl}acetyl)-7-{[(3R)-3-methyl-3,4-dihydro-1H-isoquinolin-2-yl]carbonyl}-3,4-dihydro-1H-isoquinolin-6-yl]-N-(4-hydroxyphenyl)-1,2-dimethylpyrrole-3-carboxamide]",0.25 nM,2 nM,7.9,0.5 nM,4.3 nM,17.2,0.0047 µM,9.23,0.043 µM
"Cc1c(N(C(=O)c2cc(-c3cc4c(cc3C(=O)N3Cc5ccccc5C[C@H]3C)CN(C(=O)Cc3ccc(OCCN5CCOC6(CCCC6)C5)cc3)CC4)n(C)c2C)c2ccc(O)cc2)cc(C#N)n1C [Example 73, N-(5-cyano-1,2-dimethyl-1H-pyrrol-3-yl)-N-(4-hydroxyphenyl)-1,2-dimethyl-5-{7-[(3R)-3-methyl-1,2,3,4-tetrahydroisoquinoline-2-carbonyl]-2-{2-[4-(2-{6-oxa-9-azaspiro[4.5]decan-9-yl}ethoxy)phenyl]acetyl}-1,2,3,4-tetrahydroisoquinolin-6-yl}-1H-pyrrole-3-carboxamide]",0.5 nM,2.7 nM,5.4,1.74 nM,8.9 nM,17.8,0.0057 µM,5.25,0.0298 µM

# These reach a lower Ki (BCL2 WT). Values come first.
Ki (BCL2 WT),Ki (BCL2 G101V [1]),TR_FRET EKI G101V/WT selectivty ratio (BCL2 G101V [2]),Ki (BCL2 D103Y),Ki (BCLXL WT),TR_FRET EKI BCLxL/WT selectivty ratio (BCLXL WT),SMILES,IC50 (KMS-12-PE Bcl-2 WT),Ratio (G101V/WT) (KMS-12-PE Bcl-2 G101V),IC50 (KMS-12-PE Bcl-2 G101V)
0.1 nM,0.2 nM,2.3,0.17 nM,1.3 nM,13.0,"Cc1c(N(C(=O)c2cc(-c3cc4c(cc3C(=O)N3Cc5ccccc5C[C@H]3C)CN(C(=O)Cc3ccc(OCCN5CC(F)C5)cc3)CC4)n(C)c2C)c2ccc(O)cc2)cc(C#N)n1C [Example 49, N-(5-cyano-1,2-dimethyl-1H-pyrrol-3-yl)-5-[2-(2-{4-[2-(3-fluoroazetidin-1-yl)ethoxy]phenyl}acetyl)-7-[(3R)-3-methyl-1,2,3,4-tetrahydroisoquinoline-2-carbonyl]-1,2,3,4-tetrahydroisoquinolin-6-yl]-N-(4-hydroxyphenyl)-1,2-dimethyl-1H-pyrrole-3-carboxamide]",0.0118 µM,5.91,0.0697 µM
0.07 nM,0.4 nM,5.7,0.23 nM,1.6 nM,24.6,"COCCn1c(C#N)cc(N(C(=O)c2cc(-c3cc4c(cc3C(=O)N3Cc5ccccc5C[C@H]3C)CN(C(=O)Cc3ccc(OCCN5CCOCC5)cc3)CC4)n(C)c2C)c2ccc(O)cc2)c1C [Example 68, N-[5-cyano-1-(2-methoxyethyl)-2-methyl-pyrrol-3-yl]-N-(4-hydroxyphenyl)-1,2-dimethyl-5-[7-[(3R)-3-methyl-3,4-dihydro-1H-isoquinoline-2-carbonyl]-2-[2-[4-(2-morpholinoethoxy)phenyl]acetyl]-3,4-dihydro-1H-isoquinolin-6-yl]pyrrole-3-carboxamide]",0.0096 µM,5.82,0.0556 µM
0.06 nM,0.3 nM,5.5,0.18 nM,1.8 nM,32.7,"Cc1c(N(C(=O)c2cc(-c3cc4c(cc3C(=O)N3Cc5ccccc5C[C@H]3CN3CCCCC3)CN(C(=O)Cc3ccc(OCCN5CCC(F)CC5)cc3)CC4)n(C)c2C)c2ccc(O)cc2)cc(C#N)n1C [Example 76, N-(5-cyano-1,2-dimethylpyrrol-3-yl)-5-[2-(2-{4-[2-(4-fluoropiperidin-1-yl)ethoxy]phenyl}acetyl)-7-{[(3S)-3-(piperidin-1-ylmethyl)-3,4-dihydro-1H-isoquinolin-2-yl]carbonyl}-3,4-dihydro-1H-isoquinolin-6-yl]-N-(4-hydroxyphenyl)-1,2-dimethylpyrrole-3-carboxamide]",0.0165 µM,5.28,0.0871 µM
